Data on 14 compounds can be found in ChEMBL document CHEMBL1201862, “PubChem BioAssay data set” (2004).

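The compound was tested at five concentrations on cells cultured in 96-well plates, with a 48-hour exposure period. GI50 marks 50% less growth.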 The source made the active and inactive calls. Rule as the data show it: active = GI50 up to about 1.1 µM and inactive = higher.

Holding throughout (assay): inhibition of tumour cell growth, NCI panel, 48 h
The test system of assay [1] is ACHN.
For assay [2], the system named is DMS-273.
Assay [3] deals with HCT-116.
Assay [4] has as its system HOP-62.
The subject of assay [5] is HOP-92.
In assay [6] the test system is IGROV-1.
For assay [7], the system named is Malme-3M.
Assay [8] has as its system NCI-H460.
Assay [9] has as its system OVCAR-3.
In assay [10] the test system is SF-539.
Assay [11] concerns SK-MEL-2.
Assay [12] relates to SK-MEL-5.
Assay [13] deals with SK-OV-3.
The subject of assay [14] is SNB-19.
Assay [15] has as its system HCT-15.

Turning to `COC(=O)C1CCc2c(OC)ccc(OC)c2C1=O` (stereo not drawn), the GI50 in assay [1], in assay [2], in assay [3], in [4], in assay [5] and in assay [6] was > 100 µM (inactive) throughout. In addition, the GI50 in assay [7], in assay [8], in assay [9], in [10], in [11] and in assay [12] was > 100 µM (inactive) in each case. For the same compound, the GI50 in [13] and in [14] was > 100 µM (inactive) throughout.
For the compound `COc1cc2c3c(c1OC)C1(C=CC(=O)C=C1)CC3N(C(=O)OC(C)(C)C(Cl)(Cl)Cl)CC2` (stereo not drawn), the GI50 in assay [2] was 9.38 µM (inactive); in assay [3], 6.25 µM (inactive); in assay [15], 7.52 µM; in assay [4] it was 17.6 µM (inactive); in assay [5], 14.4 µM (inactive); in [6] it was 16.6 µM (inactive). Moreover, the GI50 was 14.2 µM (inactive) in assay [7]; 14.5 µM (inactive) in assay [8]; 7.66 µM (inactive) in [9]; 15.7 µM (inactive) in assay [10]; 11 µM (inactive) in [11]; 6.87 µM (inactive) in [12]. The GI50 in assay [13] was 26.2 µM (inactive); in assay [14], 14.9 µM (inactive).
On to `CN1C=C(C(N)=O)C2CC(O)[C@@](NC(=O)CS(N)(=O)=O)(C(=O)O)C2C1` (stereo partly drawn), for which the GI50 was 4.88 µM (inactive) in [1]; 3.21 µM (inactive) in [2]; 3.32 µM (inactive) in assay [3]; 8.91 µM in [15]; 1.82 µM (inactive) in assay [4]; 1.49 µM (inactive) in [5]. For the same compound, the GI50 in assay [6] is 2.73 µM (inactive); in [7] it was 4.57 µM (inactive); in assay [8], 3.49 µM (inactive); in [9], 17.5 µM (inactive); in assay [10] it was 2.05 µM (inactive); in [11], 2.92 µM (inactive). The figures for the GI50 in assay [12], in assay [13] and in assay [14] were 6.31 µM (inactive), 2.47 µM (inactive) and 2.79 µM (inactive), respectively.
For `O=C(O)C(CS)NCc1c2ccccc2nc2ccccc12` (stereo not drawn), the GI50 was 42.3 µM (inactive) in [1]; 27 µM (inactive) in assay [2]; 16.7 µM (inactive) in assay [3]; 31.6 µM in assay [15]; 25.9 µM (inactive) in assay [5]; 27 µM (inactive) in assay [6]. For the same compound, the GI50 in assay [7] is 38.2 µM (inactive); in assay [8], 42.5 µM (inactive); in assay [9], 38.9 µM (inactive); in assay [10], 33.9 µM (inactive); in assay [11], 68.2 µM (inactive); in [13], > 100 µM (inactive). In addition, the GI50 in assay [14] is 58.6 µM (inactive).
On to `O=C(CC(=O)C1CCOC1=O)C(=O)Nc1cccc(Cl)c1` (stereo not drawn), for which the GI50 in assay [1] was > 100 µM (inactive); in assay [2], > 100 µM (inactive); in assay [3] it was > 100 µM (inactive); in assay [15] it was over 100 µM; in assay [4], > 100 µM (inactive); in assay [5], > 100 µM (inactive). Besides, the GI50 in [6], in [7], in [8], in [9], in assay [10] and in assay [11] was > 100 µM (inactive) in each case. The GI50 in [12], in assay [13] and in [14] was > 100 µM (inactive) throughout.
Turning to `CN1C(=O)CNS1(=O)=O`, the GI50 was > 100 µM (inactive) in assay [1]; > 100 µM (inactive) in [2]; > 100 µM (inactive) in assay [3]; over 100 µM in assay [15]; > 100 µM (inactive) in assay [4]; > 100 µM (inactive) in [5]. The GI50 in [6], in [7], in assay [8], in assay [9], in assay [10] and in [11] was > 100 µM (inactive) each time. Further, the GI50 in assay [12], in [13] and in assay [14] was > 100 µM (inactive) each time.
As for `CC(=O)OC1COC(N2C(=O)C(=O)c3cc(Br)ccc32)C(OC(C)=O)C1OC(C)=O` (stereo not drawn), the GI50 in assay [1] was > 100 µM (inactive); in assay [2], > 100 µM (inactive); in [15], over 100 µM; in assay [4], > 100 µM (inactive); in assay [5] it was > 100 µM (inactive); in [6] it was > 100 µM (inactive). The GI50 in [7], in assay [8], in [9], in [10], in assay [11] and in assay [12] was > 100 µM (inactive) in each case. For the same compound, the GI50 in assay [13] and in assay [14] was > 100 µM (inactive) throughout.
As to `Cc1cc(C)[n+](CCOc2ccc(/C(=C(/Cl)c3ccccc3)c3ccccc3)cc2)c(C)c1.[O-][Cl+3]([O-])([O-])[O-]`, the GI50 in assay [1] was 10 µM (inactive); in assay [2], 0.366 µM (active); in [3], 0.743 µM (active); in assay [15], 13.4 µM; in assay [4] it was 2.37 µM (inactive); in assay [5] it was 0.989 µM (active). The GI50 in assay [6] was 0.612 µM (active); in assay [7], 1.4 µM (inactive); in assay [8] it was 1.25 µM (inactive); in [9], 0.659 µM (active); in assay [10], 1.8 µM (inactive); in assay [11], 0.865 µM (active). In addition, the GI50 was 0.455 µM (active) in assay [12], 1.25 µM (inactive) in assay [13] and 0.865 µM (active) in assay [14].
For the compound `Cc1ccc(-c2nc3ccccc3c(=O)n2NC2OC(CO)C(O)C(O)C2O)cc1` (stereo not drawn), the GI50 in assay [1] is > 100 µM (inactive); in assay [2], > 100 µM (inactive); in assay [3], > 100 µM (inactive); in assay [15], over 100 µM; in assay [4], > 100 µM (inactive); in assay [5], > 100 µM (inactive). The GI50 in assay [6] was > 100 µM (inactive); in assay [7] it was 48.2 µM (inactive); in assay [8] it was > 100 µM (inactive); in [9], > 100 µM (inactive); in assay [10], > 100 µM (inactive); in [11], > 100 µM (inactive). Further, the GI50 in assay [12], in assay [13] and in assay [14] was > 100 µM (inactive) each time.
Regarding `O=[N+]([O-])c1nc(-c2ccccn2)[nH]c1[N+](=O)[O-]`, the GI50 in [1] is 64.3 µM (inactive); in [2], 65.8 µM (inactive); in assay [3], 22.3 µM (inactive); in assay [4], > 100 µM (inactive); in assay [5], > 100 µM (inactive); in assay [6], > 100 µM (inactive). Further, the GI50 in assay [7] is 57.4 µM (inactive); in assay [8], 36.6 µM (inactive); in assay [9], 59.2 µM (inactive); in assay [10], 39.6 µM (inactive); in assay [11] it was > 100 µM (inactive); in assay [12], 79.3 µM (inactive). Also, the GI50 in assay [13] and in [14] was > 100 µM (inactive) throughout.
For the compound `O=C(O)c1ccc(NC(=O)C2C(=O)C(=O)N(c3ccc(C(=O)O)cc3)C2=O)cc1` (stereo not drawn), the GI50 is > 100 µM (inactive) in [1]; > 100 µM (inactive) in assay [2]; > 100 µM (inactive) in assay [3]; over 100 µM in assay [15]; > 100 µM (inactive) in [4]; > 100 µM (inactive) in assay [5]. Also, the GI50 in [6], in assay [7], in assay [8], in assay [9], in assay [10] and in assay [11] was > 100 µM (inactive) in each case. Further, the GI50 in assay [13] and in assay [14] was > 100 µM (inactive) throughout.
Consider `NC(CCC(=O)NC(CSSCCCCS(=O)O)C(=O)NCC(=O)O)C(=O)O` (stereo not drawn), for which the GI50 in assay [1] is > 100 µM (inactive); in assay [2] it was > 100 µM (inactive); in assay [3], > 100 µM (inactive); in assay [15], over 100 µM; in assay [4], > 100 µM (inactive); in assay [6], > 100 µM (inactive). Besides, the GI50 in assay [7], in assay [8], in assay [9], in [10], in [11] and in assay [12] was > 100 µM (inactive) in each case. The GI50 in [13] and in [14] was > 100 µM (inactive) throughout.
As to `[N-]=[N+]=Nc1c(Br)c(=O)[nH]c(=O)n1COCCO`, the GI50 in assay [1], in assay [2], in assay [3], in assay [4], in assay [5] and in [6] was > 100 µM (inactive) throughout. Moreover, the GI50 in assay [7], in assay [8], in assay [9], in assay [10], in assay [12] and in assay [14] was > 100 µM (inactive) in each case.
For `O=C(Nc1ccn(CCO)c(=O)n1)c1ccccc1`, the GI50 in assay [1] was > 100 µM (inactive); in [2], > 100 µM (inactive); in [3], > 100 µM (inactive); in assay [15], over 100 µM; in assay [4] it was > 100 µM (inactive); in assay [5] it was > 100 µM (inactive). Besides, the GI50 in [6], in assay [7], in assay [8], in assay [9], in assay [10] and in [11] was > 100 µM (inactive) each time. Further, the GI50 in assay [12] and in assay [13] was > 100 µM (inactive) throughout.
